Test results as given in patent US20120219561A1, “Prophylaxis Against Cancer Metastasis” (Ingeneron, Inc., priority 2009, published 2012).

What was measured:
CXCR4 receptor = settings: animal and human studies; cited from earlier work
[1] = test system: LCN2 expression in SKBr3 cells; assay: Western blotting of LCN2 levels in SKBr3 cells incubated with pathway inhibitors; type: cell-based, human
Method: FIG. 3 depicts experiments showing that LCN2 (NGAL) is a down-stream target of the HER2/PI-3K/AKT/NF-κB pathway. A. Western blotting of LCN2 levels in HER2^+SKBr3 cells treated with Herceptin. B. Western blotting of LCN2 levels in SKBr3 cells incubated with PI-3K inhibitor LY 294002. C. Western blotting of LCN2 levels in SKBr3 cells incubated with the NF-KB inhibitor Bay11-7082. D. Western blotting of LCN2 levels in SKBr3 cells transiently expressing active or dominant negative AKT.
In addition, overexpression of dominant negative AKT led to reduced expression of LCN2, while overexpression of dominant active AKT increased LCN2 levels ([…]). […] Iannetti A, et al. “The neutrophil gelatinase-associated lipocalin (NGAL), a NF-kappaB-regulated gene, is a survival factor for thyroid neoplastic cells” Proc Natl Acad Sci USA 105(37) (2008) 14058.

4T1 mammospheres = assay: Transwell migration assay of 4T1 mammospheres; type: cell-based, murine; settings: recombinant SDF-1 in serum-free medium in lower chamber
Method: FIG. 5 show the mediators for interaction between stem cells and cancer cells. (A) 4T1 cells and especially spheroid-forming 4T1 cells migrate toward the conditioned medium of mASC. 4T1 cells (3×10^4) were plated in the upper chamber of a 3 μm transwell system. The lower chamber was filled with 1 ml of 72 h conditioned medium of mASC. After 24 h of migration through the transwell membrane, cells were fixed and stained with calcein. The results are the mean and SD number of migrated cells per microscopic field under fluorescent microscope. (B) Data showing that mASC but not 4T1 cells produce SDF-1; 4T1 cells especially spheroid-forming 4T1 cells show higher messenger RNA levels of the specific receptor CXCR4. Secreted amounts of SDF-1a were measured by enzyme-linked immunosorbent assay and CXCR4 messenger RNA levels were determined by quantitative reverse transcription-polymerase chain reaction (RT-PCR). Reverse transcription-polymerase chain reaction results were normalized against GAPDH. (C) 4T1 cells and mammospheres migrate toward recombinant SDF-1 in a transwell system. Recombinant murine SDF-1 in serum-free medium was filled into the lower chamber in stated concentrations. CXCR4 inhibition was performed by 30 μg/ml neutralizing antibody 1 h before and during the migration assay. […]

c1cc(CN2CCCNCCNCCCNCC2)ccc1CN1CCCNCCNCCCNCC1 [AMD3100]
hematopoietic stem cell mobilization (CXCR4 receptor): able to induce hematopoietic stem cell mobilization

Cc1ccc(S(=O)(=O)/C=C/C#N)cc1 [Bay11-7082]
LCN2 expression [1]: reduced in a dose-dependent manner

recombinant SDF-1: recombinant murine SDF-1 (CXCL12), ligand of CXCR4
migration of 4T1 spheroid-forming cells (4T1 mammospheres): triggers migration
